Assay results taken from US20230085307A1, “PYRIDAZINONE COMPOUND AND HERBICIDE” (NISSAN CHEMICAL CORPORATION, priority 2019, published 2023).

Legend:
[1] = tested on: barnyard grass; assay: Test Example 3: herbicidal effect by foliage application, Wagner pot (Table 18, symbol H); type: in vivo, barnyard grass (Echinochloa crus-galli); details: amount of applied herbicide 320 g/ha
Procedure, shortened: (§1)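 Plants were sown in alluvial soil held under 0.1–0.5 cm standing water and grown 14 days in a greenhouse at 25–30 °C. An emulsifiable formulation, water-diluted to the set dose, was then sprayed onto the foliage, and effects were scored three weeks later using previously defined criteria.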

[2] = tested on: Italian ryegrass; assay: Test Example 5: herbicidal effect by foliage application, plastic box (Table 20, symbol K); type: in vivo, Italian ryegrass (Lolium multiflorum); details: foliage application
Procedure, shortened: (§2)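 Post-emergence foliar test in sterilized diluvial soil. Compound applied as water-diluted emulsion at a predetermined rate to 14-day-old plants; evaluation at three weeks.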

[3] = tested on: false cleavers; assay: Test Example 5: herbicidal effect by foliage application, plastic box (Table 20, symbol Q); type: in vivo, false cleavers (Galium spurium); details: foliage application
Procedure, shortened: as §2

[4] = tested on: windgrass; assay: Test Example 4: herbicidal effect by soil treatment (Table 19, symbol L); type: in vivo, windgrass (Apera spica-venti); details: amount of applied herbicide 320 g/ha
Procedure, shortened: (§3)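 Emulsion of test compound, water-diluted to predetermined amount, sprayed on soil after sowing (seed depth ~1.5 cm, sterilized diluvial soil). Greenhouse, 25–30° C. Effect graded at three weeks post-spray.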

[5] = tested on: wild oat; assay: Test Example 5: herbicidal effect by foliage application, plastic box (Table 20, symbol I); type: in vivo, wild oat (Avena fatua); details: foliage application
Procedure, shortened: as §2

[6] = tested on: chickweed; assay: Test Example 4: herbicidal effect by soil treatment (Table 19, symbol P); type: in vivo, common chickweed (Stellaria media); details: amount of applied herbicide 320 g/ha
Procedure, shortened: as §3

[7] = tested on: barnyard grass; assay: Test Example 5: herbicidal effect by foliage application, plastic box (Table 20, symbol H); type: in vivo, barnyard grass (Echinochloa crus-galli); details: foliage application
Procedure, shortened: as §2

[8] = tested on: redroot pigweed; assay: Test Example 4: herbicidal effect by soil treatment (Table 19, symbol N); type: in vivo, redroot pigweed (Amaranthus retroflexus); details: amount of applied herbicide 320 g/ha
Procedure, shortened: as §3

[9] = tested on: lambsquarters; assay: Test Example 4: herbicidal effect by soil treatment (Table 19, symbol O); type: in vivo, lambsquarters (Chenopodium album); details: amount of applied herbicide 320 g/ha
Procedure, shortened: as §3

[10] = tested on: wild oat; assay: Test Example 4: herbicidal effect by soil treatment (Table 19, symbol I); type: in vivo, wild oat (Avena fatua); details: amount of applied herbicide 320 g/ha
Procedure, shortened: as §3

[11] = tested on: blackgrass; assay: Test Example 4: herbicidal effect by soil treatment (Table 19, symbol J); type: in vivo, blackgrass (Alopecurus myosuroides); details: amount of applied herbicide 320 g/ha
Procedure, shortened: as §3

[12] = tested on: oval-leafed pondweed; assay: Test Example 1: herbicidal activity, application before weed generation under submerged conditions (Table 16, symbol C); type: in vivo, oval-leafed pondweed (Monochoria vaginalis)
Procedure, shortened: (§4)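 Emulsion formulation, water-diluted to set dose, was put onto the flooded surface (4 cm depth, alluvial soil) the same day weeds were sown and 2.5-leaf rice transplanted. After 3 weeks at 25-30 °C under glass, each species was rated 0 (≤5% kill) to 5 (≥90% kill).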

[13] = tested on: Japanese bulrush; assay: Test Example 1: herbicidal activity, application before weed generation under submerged conditions (Table 16, symbol B); type: in vivo, Japanese bulrush (Schoenoplectus juncoides)
Procedure, shortened: as §4

[14] = tested on: late watergrass; assay: Test Example 1: herbicidal activity, application before weed generation under submerged conditions (Table 16, symbol A); type: in vivo, late watergrass (Echinochloa oryzicola)
Procedure, shortened: as §4

[15] = tested on: persian speedwell; assay: Test Example 5: herbicidal effect by foliage application, plastic box (Table 20, symbol R); type: in vivo, Persian speedwell (Veronica persica); details: foliage application
Procedure, shortened: as §2

[16] = tested on: rice flat sedge; assay: Test Example 3: herbicidal effect by foliage application, Wagner pot (Table 18, symbol E); type: in vivo, rice flat sedge (Cyperus iria); details: amount of applied herbicide 320 g/ha
Procedure, shortened: as §1

[17] = tested on: windgrass; assay: Test Example 5: herbicidal effect by foliage application, plastic box (Table 20, symbol L); type: in vivo, windgrass (Apera spica-venti); details: foliage application
Procedure, shortened: as §2

[18] = tested on: barnyard grass; assay: Test Example 4: herbicidal effect by soil treatment (Table 19, symbol H); type: in vivo, barnyard grass (Echinochloa crus-galli); details: amount of applied herbicide 320 g/ha
Procedure, shortened: as §3

[19] = tested on: velvetleaf; assay: Test Example 4: herbicidal effect by soil treatment (Table 19, symbol M); type: in vivo, velvetleaf (Abutilon theophrasti); details: amount of applied herbicide 320 g/ha
Procedure, shortened: as §3

[20] = tested on: southern crabgrass; assay: Test Example 5: herbicidal effect by foliage application, plastic box (Table 20, symbol F); type: in vivo, southern crabgrass (Digitaria ciliaris); details: foliage application
Procedure, shortened: as §2

[21] = tested on: Italian ryegrass; assay: Test Example 4: herbicidal effect by soil treatment (Table 19, symbol K); type: in vivo, Italian ryegrass (Lolium multiflorum); details: amount of applied herbicide 320 g/ha
Procedure, shortened: as §3

[22] = tested on: persian speedwell; assay: Test Example 4: herbicidal effect by soil treatment (Table 19, symbol R); type: in vivo, Persian speedwell (Veronica persica); details: amount of applied herbicide 320 g/ha
Procedure, shortened: as §3

[23] = tested on: green foxtail; assay: Test Example 5: herbicidal effect by foliage application, plastic box (Table 20, symbol G); type: in vivo, green foxtail (Setaria viridis); details: foliage application
Procedure, shortened: as §2

[24] = tested on: redroot pigweed; assay: Test Example 5: herbicidal effect by foliage application, plastic box (Table 20, symbol N); type: in vivo, redroot pigweed (Amaranthus retroflexus); details: foliage application
Procedure, shortened: as §2

[25] = tested on: velvetleaf; assay: Test Example 5: herbicidal effect by foliage application, plastic box (Table 20, symbol M); type: in vivo, velvetleaf (Abutilon theophrasti); details: foliage application
Procedure, shortened: as §2

[26] = tested on: southern crabgrass; assay: Test Example 4: herbicidal effect by soil treatment (Table 19, symbol F); type: in vivo, southern crabgrass (Digitaria ciliaris); details: amount of applied herbicide 320 g/ha
Procedure, shortened: as §3

[27] = tested on: green foxtail; assay: Test Example 4: herbicidal effect by soil treatment (Table 19, symbol G); type: in vivo, green foxtail (Setaria viridis); details: amount of applied herbicide 320 g/ha
Procedure, shortened: as §3

[28] = tested on: blackgrass; assay: Test Example 5: herbicidal effect by foliage application, plastic box (Table 20, symbol J); type: in vivo, blackgrass (Alopecurus myosuroides); details: foliage application
Procedure, shortened: as §2

[29] = tested on: Chinese sprangletop; assay: Test Example 3: herbicidal effect by foliage application, Wagner pot (Table 18, symbol D); type: in vivo, chinese sprangletop (Leptochloa chinensis); details: amount of applied herbicide 320 g/ha
Procedure, shortened: as §1

[30] = tested on: lambsquarters; assay: Test Example 5: herbicidal effect by foliage application, plastic box (Table 20, symbol O); type: in vivo, lambsquarters (Chenopodium album); details: foliage application
Procedure, shortened: as §2

[31] = tested on: chickweed; assay: Test Example 5: herbicidal effect by foliage application, plastic box (Table 20, symbol P); type: in vivo, common chickweed (Stellaria media); details: foliage application
Procedure, shortened: as §2

[32] = AAH 320 g/ha, evaluated three weeks after application
[33] = 320 g/ha, three weeks after application
[34] = amount of applied herbicide 320 g/ha

Cc1ccc(S(=O)(=O)Oc2c(C)nn(C)c(=O)c2-c2c(-c3ccc(OC(F)F)cc3)sc3ccc(F)cc23)cc1 [2-312]
herbicidal effect on H: barnyard grass [1]: 5 (Herbicidal rate of 90% or more (almost completely withered)) | K: Italian ryegrass, herbicidal effect (criteria 0-5) [2, 32]: 5 (Herbicidal rate of 90% or more (almost completely withered)) | Q: false cleavers, herbicidal effect (criteria 0-5) [3, 32]: 5 (Herbicidal rate of 90% or more (almost completely withered)) | herbicidal effect on L: windgrass [4]: 0 (Herbicidal rate of 5% or less (almost no effect)) | I: wild oat, herbicidal effect (criteria 0-5) [5, 32]: 3 (Herbicidal rate of 40% or more and less than 70%) | herbicidal effect on P: chickweed [6]: 5 (Herbicidal rate of 90% or more (almost completely withered)) | H: barnyard grass, herbicidal effect (criteria 0-5) [7, 32]: 5 (Herbicidal rate of 90% or more (almost completely withered)) | herbicidal effect on N: redroot pigweed [8]: 5 (Herbicidal rate of 90% or more (almost completely withered)) | herbicidal effect on O: lambsquarters [9]: 4 (Herbicidal rate of 70% or more and less than 90%) | herbicidal effect on I: wild oat [10]: 0 (Herbicidal rate of 5% or less (almost no effect)) | herbicidal effect on J: blackgrass [11]: 3 (Herbicidal rate of 40% or more and less than 70%) | Herbicidal effect on C: oval-leafed pondweed (grade 0-5) ([12]; 320 g/ha applied herbicide): 0 (Herbicidal rate of 5% or less (almost no effect)) | Herbicidal effect on B: Japanese bulrush (grade 0-5) ([13]; 320 g/ha applied herbicide): 3 (Herbicidal rate of 40% or more and less than 70%) | Herbicidal effect on A: late watergrass (grade 0-5) ([14]; 320 g/ha applied herbicide): 2 (Herbicidal rate of 20% or more and less than 40%) | R: persian speedwell, herbicidal effect (criteria 0-5) [15, 32]: 5 (Herbicidal rate of 90% or more (almost completely withered)) | herbicidal effect on E: rice flat sedge [16]: 5 (Herbicidal rate of 90% or more (almost completely withered)) | L: windgrass, herbicidal effect (criteria 0-5) [17, 32]: 4 (Herbicidal rate of 70% or more and less than 90%) | herbicidal effect on H: barnyard grass [18]: 1 (Herbicidal rate of 5% or more and less than 20%) | herbicidal effect on M: velvetleaf [19]: 3 (Herbicidal rate of 40% or more and less than 70%) | F: southern crabgrass, herbicidal effect (criteria 0-5) [20, 32]: 1 (Herbicidal rate of 5% or more and less than 20%) | herbicidal effect on K: Italian ryegrass [21]: 5 (Herbicidal rate of 90% or more (almost completely withered)) | herbicidal effect on R: persian speedwell [22]: 5 (Herbicidal rate of 90% or more (almost completely withered)) | G: green foxtail, herbicidal effect (criteria 0-5) [23, 32]: 4 (Herbicidal rate of 70% or more and less than 90%) | N: redroot pigweed, herbicidal effect (criteria 0-5) [24, 32]: 5 (Herbicidal rate of 90% or more (almost completely withered)) | M: velvetleaf, herbicidal effect (criteria 0-5) [25, 32]: 5 (Herbicidal rate of 90% or more (almost completely withered)) | herbicidal effect on F: southern crabgrass [26]: 0 (Herbicidal rate of 5% or less (almost no effect)) | herbicidal effect on G: green foxtail [27]: 0 (Herbicidal rate of 5% or less (almost no effect)) | J: blackgrass, herbicidal effect (criteria 0-5) [28, 32]: 4 (Herbicidal rate of 70% or more and less than 90%) | herbicidal effect on D: Chinese sprangletop [29]: 3 (Herbicidal rate of 40% or more and less than 70%) | O: lambsquarters, herbicidal effect (criteria 0-5) [30, 32]: 5 (Herbicidal rate of 90% or more (almost completely withered)) | P: chickweed, herbicidal effect (criteria 0-5) [31, 32]: 5 (Herbicidal rate of 90% or more (almost completely withered))

Cc1nn(Cc2ccccc2)c(=O)c(-c2c(-c3ccc(F)cc3)sc3ccc(F)cc23)c1O [2-432]
herbicidal effect on H: barnyard grass [1]: 3 (Herbicidal rate of 40% or more and less than 70%) | K: Italian ryegrass, herbicidal effect grade [2, 33]: 0 (Herbicidal rate of 5% or less (almost no effect)) | Q: false cleavers, herbicidal effect grade [3, 33]: 3 (Herbicidal rate of 40% or more and less than 70%) | herbicidal effect, L: windgrass [4]: 0 (Herbicidal rate of 5% or less (almost no effect)) | I: wild oat, herbicidal effect grade [5, 33]: 0 (Herbicidal rate of 5% or less (almost no effect)) | herbicidal effect, P: chickweed [6]: 0 (Herbicidal rate of 5% or less (almost no effect)) | H: barnyard grass, herbicidal effect grade [7, 33]: 1 (Herbicidal rate of 5% or more and less than 20%) | herbicidal effect, N: redroot pigweed [8]: 3 (Herbicidal rate of 40% or more and less than 70%) | herbicidal effect, O: lambsquarters [9]: 2 (Herbicidal rate of 20% or more and less than 40%) | herbicidal effect, I: wild oat [10]: 0 (Herbicidal rate of 5% or less (almost no effect)) | herbicidal effect, J: blackgrass [11]: 0 (Herbicidal rate of 5% or less (almost no effect)) | Herbicidal effect, C: oval-leafed pondweed [12, 34]: 0 (Herbicidal rate of 5% or less (almost no effect)) | Herbicidal effect, B: Japanese bulrush [13, 34]: 0 (Herbicidal rate of 5% or less (almost no effect)) | Herbicidal effect, A: late watergrass [14, 34]: 2 (Herbicidal rate of 20% or more and less than 40%) | R: persian speedwell, herbicidal effect grade [15, 33]: 5 (Herbicidal rate of 90% or more (almost completely withered)) | herbicidal effect on E: rice flat sedge [16]: 2 (Herbicidal rate of 20% or more and less than 40%) | L: windgrass, herbicidal effect grade [17, 33]: 0 (Herbicidal rate of 5% or less (almost no effect)) | herbicidal effect, H: barnyard grass [18]: 0 (Herbicidal rate of 5% or less (almost no effect)) | herbicidal effect, M: velvetleaf [19]: 0 (Herbicidal rate of 5% or less (almost no effect)) | F: southern crabgrass, herbicidal effect grade [20, 33]: 3 (Herbicidal rate of 40% or more and less than 70%) | herbicidal effect, K: Italian ryegrass [21]: 0 (Herbicidal rate of 5% or less (almost no effect)) | herbicidal effect, R: persian speedwell [22]: 0 (Herbicidal rate of 5% or less (almost no effect)) | G: green foxtail, herbicidal effect grade [23, 33]: 0 (Herbicidal rate of 5% or less (almost no effect)) | N: redroot pigweed, herbicidal effect grade [24, 33]: 5 (Herbicidal rate of 90% or more (almost completely withered)) | M: velvetleaf, herbicidal effect grade [25, 33]: 1 (Herbicidal rate of 5% or more and less than 20%) | herbicidal effect, F: southern crabgrass [26]: 0 (Herbicidal rate of 5% or less (almost no effect)) | herbicidal effect, G: green foxtail [27]: 1 (Herbicidal rate of 5% or more and less than 20%) | J: blackgrass, herbicidal effect grade [28, 33]: 0 (Herbicidal rate of 5% or less (almost no effect)) | herbicidal effect on D: Chinese sprangletop [29]: 0 (Herbicidal rate of 5% or less (almost no effect)) | O: lambsquarters, herbicidal effect grade [30, 33]: 2 (Herbicidal rate of 20% or more and less than 40%) | P: chickweed, herbicidal effect grade [31, 33]: 5 (Herbicidal rate of 90% or more (almost completely withered))
